According to US20220151230A1, “SPECIFICALLY SUBSTITUTED 3-(2-HALOGEN-6-ALKYL-4-PROPINYLPHENYL)-3-PYRROLIN-2-ONES AND TO THE USE THEREOF AS HERBICIDES” (Bayer Aktiengesellschaft, priority 2019, published 2022):

Assays:
Settings in all cases: one-leaf stage, 80 g/ha, assessed visually after about 3 weeks vs untreated controls, 100% = plants have died
ECHCG = assay: Post-emergence herbicidal effect against ECHCG; format: in vivo, Echinochloa crus-galli
Outline: (§1)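 Visual scoring about 3 weeks after treatment gave % herbicidal action relative to untreated plants (0% = control-like, 100% = plants dead). Compounds, as WP or EC with 0.2% wetting agent, were sprayed onto green parts at 600–800 l/ha. Plants had reached the one-leaf stage, 2–3 weeks after sowing in sandy loam under greenhouse conditions.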

ALOMY = assay: Post-emergence herbicidal effect against ALOMY; format: in vivo, Alopecurus myosuroides
Outline: as §1

SETVI = assay: Post-emergence herbicidal effect against SETVI; format: in vivo, Setaria viridis
Outline: as §1

DIGSA = assay: Post-emergence herbicidal effect against DIGSA; format: in vivo, Digitaria sanguinalis
Outline: as §1

HORMU = assay: Post-emergence herbicidal effect against HORMU; format: in vivo, Hordeum murinum
Description: Seeds of monocotyledonous and dicotyledonous weed and crop plants are laid out in sandy loam soil in wood-fiber pots, covered with soil and cultivated in a greenhouse under good growth conditions. 2 to 3 weeks after sowing, the test plants are treated at the one-leaf stage. The compounds of the invention, formulated in the form of wettable powders (WP) or as emulsion concentrates (EC), are then sprayed onto the green parts of the plants as aqueous suspension or emulsion at a water application rate equating to 600 to 800 l/ha with addition of 0.2% wetting agent. After the test plants have been left to stand in the greenhouse under optimal growth conditions for about 3 weeks, the action of the preparations is assessed visually in comparison to untreated controls (herbicidal action in percent (%): 100% activity=the plants have died, 0% activity=like control plants).

LOLRI = assay: Post-emergence herbicidal effect against LOLRI; format: in vivo, Lolium rigidum
Outline: as §1

AVEFA = assay: Post-emergence herbicidal effect against AVEFA; format: in vivo, Avena fatua
Outline: as §1

CC#Cc1cc(C)c(C2=C(OC(=O)C(C)C)C3(CCC(OC)CC3)NC2=O)c(Cl)c1 (stereo not shown) [Example P12]
100%: Post-emergence action [%] against ECHCG (ECHCG) | Post-emergence action [%] against ALOMY (ALOMY) | Post-emergence action [%] against SETVI (SETVI) | Post-emergence action [%] against DIGSA (DIGSA) | Post-emergence action [%] against HORMU (HORMU) | Post-emergence action [%] against LOLRI (LOLRI) | Post-emergence action [%] against AVEFA (AVEFA)

CC#Cc1cc(C)c(C2=C(OC(=O)OCC)C3(CCCC(OCCC)C3)NC2=O)c(Cl)c1 (stereo not shown) [Example Q5]
100%: Post-emergence action [%] against ECHCG (ECHCG) | Post-emergence action [%] against ALOMY (ALOMY) | Post-emergence action [%] against SETVI (SETVI) | Post-emergence action [%] against DIGSA (DIGSA) | Post-emergence action [%] against HORMU (HORMU) | Post-emergence action [%] against LOLRI (LOLRI) | Post-emergence action [%] against AVEFA (AVEFA)

CC#Cc1cc(C)c(C2=C(OC(=O)OCC)C3(CCC(OCC)CC3)NC2=O)c(Cl)c1 (stereo not shown) [Example P16]
100%: Post-emergence action [%] against ECHCG (ECHCG) | Post-emergence action [%] against ALOMY (ALOMY) | Post-emergence action [%] against SETVI (SETVI) | Post-emergence action [%] against DIGSA (DIGSA) | Post-emergence action [%] against HORMU (HORMU) | Post-emergence action [%] against LOLRI (LOLRI) | Post-emergence action [%] against AVEFA (AVEFA)

CC#Cc1cc(C)c(C2=C(O)C3(CCCC(OCCC)C3)NC2=O)c(Cl)c1 (stereo not shown) [Example D1, 3-[2-Chloro-6-methyl-4-(prop-1-yn-1-yl)phenyl]-4-hydroxy-7-propoxy-1-azaspiro[4.5]dec-3-en-2-one]
100%: Post-emergence action [%] against ECHCG (ECHCG) | Post-emergence action [%] against ALOMY (ALOMY) | Post-emergence action [%] against SETVI (SETVI) | Post-emergence action [%] against DIGSA (DIGSA) | Post-emergence action [%] against HORMU (HORMU) | Post-emergence action [%] against LOLRI (LOLRI) | Post-emergence action [%] against AVEFA (AVEFA)
